Reference: PubChem BioAssay (NCI)
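Values below derive from 48-hour exposures of cells grown in 96-well plates, with endpoints linearly interpolated between the two concentrations bracketing the appropriate inhibition level. GI50 is the concentration that inhibits growth by half. TGI marks complete inhibition of growth.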

Legend:
Assay in all cases: inhibition of tumour cell growth, NCI panel, 48 h
[1] = system: SF-268 CNS
[2] = system: OVCAR-3 ovarian
[3] = system: SK-MEL-28 melanoma
[4] = system: OVCAR-8 ovarian
[5] = system: IGROV1 ovarian
[6] = system: A498 renal
[7] = system: SK-OV-3 ovarian
[8] = system: SN12C renal
[9] = system: HCT-15 colon

Work on `Clc1ccc(C2=NN(c3ccccc3)C3c4cc(Br)ccc4OCC23)cc1` (stereo not drawn) yielded a TGI [1] of over 100 µM, a TGI [2] of over 100 µM and a TGI [3] of over 100 µM. For the same compound, the TGI [4] was over 100 µM, the TGI [5] was over 100 µM and the TGI [6] was over 100 µM. For the same compound, the TGI [7] was over 100 µM.

With `C/C=C(\C)C(=O)O[C@@H]1C=CC(=O)O[C@H]1COC(=O)[C@H](C)O` the GI50 [1] was 3.72 µM, the TGI [1] was 19.5 µM and the GI50 [2] was 14 µM. The TGI [2] was 27.6 µM, the GI50 [3] was 12.4 µM and the TGI [3] was 27.9 µM. It also gave a GI50 [4] of 18.1 µM, a TGI [4] of over 100 µM and a GI50 [8] of 14.5 µM. The TGI [8] was 30.2 µM, the GI50 [5] was 7.46 µM and the TGI [5] was 24.6 µM. It also gave a GI50 [6] of 15.2 µM, a TGI [6] of 30.4 µM and a GI50 [9] of 5.68 µM. It also gave a TGI [9] of 19.5 µM, a GI50 [7] of 25.2 µM and a TGI [7] of 88.6 µM.

In the case of `COc1ccc(Br)c(CCCCC(=O)O)c1`, the TGI [2] is reported as over 100 µM, the TGI [3] is reported as over 100 µM and the TGI [4] is reported as over 100 µM. It also gave a TGI [8] of over 100 µM, a TGI [5] of over 100 µM and a TGI [6] of over 100 µM. The TGI [9] was over 100 µM and the TGI [7] was over 100 µM.

In the case of `CCOC(=O)C1=C(O)CSC1=Nc1ccc(N=C2SCC(O)=C2C(=O)OCC)cc1`, the TGI [1] is reported as 52.4 µM, the TGI [2] is reported as over 100 µM and the TGI [3] is reported as 40.8 µM. It also gave a TGI [4] of over 100 µM, a TGI [8] of 71.8 µM and a TGI [5] of 60.6 µM. It also gave a TGI [6] of 50.5 µM, a TGI [9] of 57.7 µM and a TGI [7] of 65.3 µM.

Work on `C=C(CNCCc1ccc(O)cc1)[C@@H]1CC[C@]2(CO)CC[C@]3(C)[C@H](CC[C@@H]4[C@@]5(C)CCC(NCCO)C(C)(C)[C@@H]5CC[C@]43C)[C@@H]12` (stereo partly drawn) yielded a GI50 [1] of 1.57 µM, a TGI [1] of 3.23 µM and a GI50 [2] of 1.73 µM. It also gave a TGI [2] of 3.51 µM, a GI50 [3] of 1.81 µM and a TGI [3] of 3.38 µM. For the same compound, the GI50 [4] was 1.79 µM, the TGI [4] was 3.22 µM and the GI50 [8] was 1.75 µM. It also gave a TGI [8] of 3.25 µM, a GI50 [5] of 1.94 µM and a TGI [5] of 3.9 µM. For the same compound, the GI50 [6] was 1.72 µM, the TGI [6] was 3.72 µM and the GI50 [9] was 1.57 µM. The TGI [9] was 3.37 µM, the GI50 [7] was 1.85 µM and the TGI [7] was 3.52 µM.

With `Cn1cc(-c2nonc2-c2cn(C)c3ccc(Br)cc23)c2ccccc21` the GI50 [1] was 5.79 µM, the TGI [1] was over 100 µM and the GI50 [2] was 2.8 µM. It also gave a TGI [2] of 8.61 µM, a GI50 [3] of over 100 µM and a TGI [3] of over 100 µM. It also gave a GI50 [4] of 5.14 µM, a TGI [4] of over 100 µM and a GI50 [8] of 5.25 µM. The TGI [8] was over 100 µM, the GI50 [5] was 5.13 µM and the TGI [5] was over 100 µM. It also gave a GI50 [6] of 3.38 µM, a TGI [6] of over 100 µM and a GI50 [9] of 2.17 µM. The TGI [9] was over 100 µM, the GI50 [7] was 7.52 µM and the TGI [7] was over 100 µM.

Compound `Fc1cccc(C=NC23CC4CC(CC(C4)C2)C3)c1` has a TGI [1] of over 100 µM, a TGI [2] of over 100 µM and a TGI [3] of over 100 µM. For the same compound, the TGI [4] was over 100 µM, the TGI [8] was over 100 µM and the TGI [5] was over 100 µM. For the same compound, the TGI [6] was over 100 µM, the TGI [9] was over 100 µM and the TGI [7] was over 100 µM.

`CCOC(=O)C12CN(C34CC5CC(CC(C5)C3)C4)CC(C(=O)OCC)(C1=O)C(c1ccccc1)OC2c1ccccc1` (stereo not drawn) gave a TGI [1] of over 100 µM, a TGI [2] of over 100 µM and a TGI [3] of over 100 µM. It also gave a TGI [4] of over 100 µM, a TGI [5] of over 100 µM and a TGI [6] of over 100 µM. For the same compound, the TGI [9] was over 100 µM and the TGI [7] was over 100 µM.

For `COC(=O)CC(CC(=O)C(=O)OC)C(=O)OC` (stereo not drawn), the TGI [2] was over 100 µM, the TGI [3] was over 100 µM and the TGI [4] was over 100 µM. For the same compound, the TGI [8] was over 100 µM, the TGI [5] was over 100 µM and the TGI [6] was over 100 µM. The TGI [9] was over 100 µM and the TGI [7] was over 100 µM.

With `COc1ccc(C(=O)Nc2ccccc2)cc1[N+](=O)[O-]` the TGI [1] was over 100 µM, the TGI [2] was over 100 µM and the TGI [3] was over 100 µM. It also gave a TGI [4] of over 100 µM, a TGI [8] of over 100 µM and a TGI [5] of over 100 µM. For the same compound, the TGI [6] was over 100 µM, the TGI [9] was over 100 µM and the TGI [7] was over 100 µM.

For `CCOc1ccc(NC(=O)/C(=C/c2ccccc2)C(C)=O)cc1`, the TGI [1] was 30.7 µM, the TGI [2] was 25.3 µM and the TGI [3] was 26 µM. For the same compound, the TGI [4] was 43.1 µM, the TGI [8] was 35 µM and the TGI [5] was 29.1 µM. For the same compound, the TGI [6] was 35.3 µM, the TGI [9] was 32.4 µM and the TGI [7] was 40.7 µM.

`CCCCCNC(=O)C1C(=O)N(CCCCC)C(=O)/C1=N\N` (stereo not drawn) was tested, and the TGI [1] was over 100 µM, the TGI [2] was over 100 µM and the TGI [3] was over 100 µM. It also gave a TGI [4] of over 100 µM, a TGI [8] of over 100 µM and a TGI [5] of over 100 µM. The TGI [6] was over 100 µM and the TGI [9] was over 100 µM.

With `COC(=O)[C@@]12C3=NO[C@]1(C(=O)OC)C(O[Si](C)(C)C(C)(C)C)C1OC(C)(C)OC1[C@@H]2[C@@H](OCc1ccccc1)CC3` (stereo partly drawn) the TGI [2] was over 100 µM, the TGI [3] was over 100 µM and the TGI [4] was over 100 µM. The TGI [8] was over 100 µM, the TGI [5] was over 100 µM and the TGI [6] was over 100 µM. For the same compound, the TGI [9] was over 100 µM and the TGI [7] was over 100 µM.

Compound `O=C1/C(=C/c2ccccc2Cl)COc2ccccc21` has a TGI [1] of 34.1 µM, a TGI [2] of 34.8 µM and a TGI [3] of 30.1 µM. It also gave a TGI [4] of 33.4 µM, a TGI [5] of 35.6 µM and a TGI [6] of 32.4 µM. The TGI [7] was 72.5 µM.

`CC1=C(C(=O)Nc2cc(F)c(F)cc2F)C(c2cccc([N+](=O)[O-])c2)C(C(=O)Nc2ccccc2C(F)(F)F)=C(C)N1` (stereo not drawn) gave a TGI [1] of 54.6 µM, a TGI [2] of 41.9 µM and a TGI [3] of 62.2 µM. For the same compound, the TGI [4] was 77.7 µM, the TGI [8] was 56.5 µM and the TGI [5] was over 100 µM. For the same compound, the TGI [6] was 45 µM and the TGI [7] was 88.9 µM.

Work on `COC(=O)C1(c2ccc(OC)cc2)NC(c2ccccc2)C2C(=O)N(c3ccc(OC)cc3)C(=O)C21` (stereo not drawn) yielded a TGI [1] of over 100 µM, a TGI [3] of over 100 µM and a TGI [4] of over 100 µM. The TGI [8] was over 100 µM, the TGI [5] was over 100 µM and the TGI [6] was over 100 µM. The TGI [9] was over 100 µM and the TGI [7] was over 100 µM.

For `Cc1ccc(NC(=O)CCC(=O)C2CC(=O)CCC2=O)cc1C` (stereo not drawn), the TGI [1] was over 100 µM, the TGI [2] was over 100 µM and the TGI [3] was over 100 µM. For the same compound, the TGI [4] was over 100 µM, the TGI [8] was over 100 µM and the TGI [5] was over 100 µM. It also gave a TGI [9] of over 100 µM and a TGI [7] of over 100 µM.
